From the NIST ThermoML archive (doi:10.1016/j.jct.2018.02.022)
Several values for one entry are separate records, joined by “and”; a condition that tells them apart may be missing. Equal entries are not always repeated.

Assay: xn = mol fraction of the nth substance listed
Settings: 298.15 K, 92.3 kPa, Liquid; for viscosity: Concentric cylinders viscometry; for speed of sound: Frequency=3 MHz, Single path-length method; for mass density: Vibrating tube method

CCO [ethanol] + O
Settings | mass density | speed of sound [m/s] | viscosity [mPa·s]
x1 = 0.0024 | 995.871 kg/m3 | 1501.5 | –
x1 = 0.0201 | 988.31 kg/m3 | – | 1.098
x1 = 0.0202 | 988.159 kg/m3 | 1532.7 | –
x1 = 0.0295 | 984.669 kg/m3 | 1548.2 | –
x1 = 0.0366 | 982.196 kg/m3 | 1559.6 | –
x1 = 0.0408 | 980.85 kg/m3 | – | 1.336
x1 = 0.0497 | 977.99 kg/m3 | – | 1.432
x1 = 0.0513 | 977.287 kg/m3 | 1581.3 | –
x1 = 0.06 | 974.31 kg/m3 and 974.729 kg/m3 | 1592.1 | 1.551
x1 = 0.0707 | 971.631 kg/m3 | 1603.2 | –
x1 = 0.0796 | 969.17 kg/m3 | – | 1.748
x1 = 0.0801 | 968.969 kg/m3 | 1610.7 | –
x1 = 0.0904 | 966.039 kg/m3 | 1616.4 | –
x1 = 0.0997 | 963.419 kg/m3 | 1619 | –
x1 = 0.1004 | 961.4 kg/m3 | – | 1.947
x1 = 0.1294 | 954.963 kg/m3 | 1613.3 | –
x1 = 0.1497 | 948.951 kg/m3 | 1600.1 | –
x1 = 0.1499 | 948.9 kg/m3 | – | 2.242
x1 = 0.1984 | 931.84 kg/m3 | – | 2.371
x1 = 0.2008 | 933.41 kg/m3 | 1553.7 | –
x1 = 0.2499 | 918.95 kg/m3 | – | 2.429
x1 = 0.2503 | 918.708 kg/m3 | 1507 | –
x1 = 0.2998 | 904.858 kg/m3 | 1464.5 | –
x1 = 0.3016 | 904.86 kg/m3 | – | 2.339
x1 = 0.3499 | 892.28 kg/m3 | – | 2.263
x1 = 0.3507 | 891.711 kg/m3 | 1426.2 | –
x1 = 0.399 | 880.34 kg/m3 | – | 2.17
x1 = 0.3992 | 880.239 kg/m3 | 1394.2 | –
x1 = 0.4495 | 869.34 kg/m3 | – | 2.066
x1 = 0.4514 | 869.012 kg/m3 | 1363.9 | –
x1 = 0.4989 | 860.04 kg/m3 | – | 1.956
x1 = 0.5002 | 858.963 kg/m3 | 1337.9 | –
x1 = 0.5494 | 849.801 kg/m3 | 1314.5 | –
x1 = 0.5495 | 850.72 kg/m3 | – | 1.88
x1 = 0.6018 | 840.665 kg/m3 | 1291.5 | –
x1 = 0.6067 | 840.19 kg/m3 | – | 1.744
x1 = 0.6503 | 832.95 kg/m3 and 832.839 kg/m3 | 1271.8 | 1.659
x1 = 0.6956 | 826.05 kg/m3 | – | 1.572
x1 = 0.7006 | 825.07 kg/m3 | 1252.3 | –
x1 = 0.7355 | 819.907 kg/m3 | 1239.1 | –
x1 = 0.75 | 818.03 kg/m3 | – | 1.483
x1 = 0.7843 | 813.49 kg/m3 | – | 1.43
x1 = 0.7965 | 811.475 kg/m3 | 1217 | –
x1 = 0.8433 | 805.219 kg/m3 | 1200.2 | –
x1 = 0.8475 | 805.63 kg/m3 | – | 1.342
x1 = 0.8864 | 799.93 kg/m3 | – | 1.271
x1 = 0.892 | 798.808 kg/m3 | 1182.5 | –
x1 = 0.9093 | 796.615 kg/m3 | 1176.3 | –
x1 = 0.9207 | 795.193 kg/m3 | 1172.3 | –
x1 = 0.929 | 794.19 kg/m3 | – | 1.204
x1 = 0.9307 | 793.91 kg/m3 | 1168.6 | –
x1 = 0.9398 | 792.821 kg/m3 | 1165.4 | –
x1 = 0.9483 | 791.735 kg/m3 | 1162.3 | –
x1 = 0.9603 | 790.291 kg/m3 | 1158.1 | –
x1 = 0.9702 | 789.073 kg/m3 | 1154.5 | –
x1 = 0.9801 | 787.741 kg/m3 | 1151.3 | –
x1 = 0.9895 | 786.779 kg/m3 | 1147.8 | –
x1 = 1 | 785.26 kg/m3 | 1143.5 | 1.091
